Experimental findings from patent US12534762B2, “Treating atopic dermatitis by targeting the WNT pathway” (Children's Medical Center Corporation, priority 2018, dated 2026) are described below.

The series concerns animal pole explants of Xenopus embryos. Description: Neural induction assay by Noggin in animal pole explants (RT-PCR). The conditions noted are these: co-injected with Tmem79MO. Also on record: species or system Xenopus laevis. How it is done: mRNA and Morpholino injection. For animal cap assays, indicated mRNAs (Tmem79, 100 and 200 pg; Xwnt8, 10 pg; β-catenin 50 pg; Xnr1, 250 pg; BMP4, 100 pg) were injected into the animal pole at 4-cell stage, and animal caps were dissected at stage 9 (in the case of Xwnt8, Xnr1, BMP4) or at stage 8.5 and treated with recombinant proteins (bFGF, 100 ng/ml; hShh, 1.5 ng/mL) until stage 10 before RT-PCR. For Neural induction assay the MO (20 ng) for Tmem79, Usp8 or β-catenin was injected into the animal pole at 4-cell stage, and animal caps were dissected at stage 9 and treated with recombinant protein Noggin (500 ng/mL) until stage 18 before RT-PCR. To examine Tmem79 and Usp8 MOs specificity, […] of mRNA of Xenopus Tmem79, mouse Tmem79, Xenopus Usp8 or xmutUsp8 (Xenopus Usp8 mutated for mismatches with the MO) were injected with a control MO, Tmem79 MO or Usp8 MO (20 ng) into the animal pole at the 2-cell stage and cultured til stage 10 for Western blotting. To knockdown the endogenous xTmem79 or xUsp8, 20 ng of control MO, Tmem79 MO or Usp8 MO were injected into two dorso-animal blastomeres at the 8-cell stage and the phenotype was scored at stage 35. To rescue the Tmem79 MO phenotype, […] of mTmem 79, 20 ng of Usp8 MO or 10 ng of β-catenin MO was injected together with Tmem79 MO (20 ng). RT-PCR primers and Morpholinos. […]

In the case of “Usp8 MO: morpholino against Xenopus Usp8, SEQ ID NO: 26 (antisense GCTGCAAATTCTCCTCTCTTATCAA; all phosphorodiamidate morpholino (PMO); listed as Xenopus laevis)”, the “neural induction by Noggin abolished by Tmem79MO: effect of co-injection” value is reported as “rescued”.
